The test concerns C. auris (B11220). Description: MIC dose-response assay in YPD. To be noted: Candidozyma auris. Type of test: cell-based. As to the method:
We tested the effects of 4456dh on live cells by determining the minimal inhibitory concentration causing 80% growth reduction (MIC80). Wild-type (WT) C. albicans and C. auris cells were incubated with 4456dh in yeast-peptone-dextrose (YPD) medium at 42°C and 39°C, respectively (Fig. 4A). […] 4456dh inhibited the growth of C. auris with an MIC80 of 7 mM at 39°C (Fig. 4A). The MIC80 increased at 30°C to greater than 13 mM (Fig. S7A).
Fig 4 4456dh inhibits the growth of Candida and Cryptococcus species. Two-fold dose response assays were performed against (A) C. albicans at 42°C and C. auris at 39°C, (B) C. glabrata at 42°C, and (C) C. neoformans, C. deneoformans, and C. gattii at 37°C. 4456dh was administered at the concentrations indicated. Cultures were grown in YPD at the listed temperatures for 48 hours for Candida species and 72 hours for Cryptococcus species. Experimental temperatures reflect the temperatures at which the fungi experience heat stress. Left: relative growth of treated samples was calculated by averaging technical triplicates and normalizing the OD600 of each treated well to the average OD600 of the untreated WT controls, after the absorbance due to the compound was subtracted. The MIC80 values, calculated based on the OD600 values, are indicated in the white text on each heat map. […]
102 determined by identifying the inflection point of the derivative data. […]
104 The catalytic activity of C. albicans Tps1 and C. neoformans Tps1 was measured via a continuous […]
110 bottomed 96-well microtiter plates and the decrease in absorbance at 340 nm during the initial
111 reaction rate was recorded using a plate reader (Tecan). The decrease in absorbance was
112 analyzed for the first 200s of the kinetic reaction. […]
116 the overnight cultures was quantified by measuring the OD600 and corrected for the background
117 absorbance of the medium. Antifungal potency for 4456dh was assessed by minimum inhibitory […]
124 technical replicates. Growth, as determined by a reading of absorbance at 600 nm, was
125 normalized to untreated controls and was corrected for the absorbance of 4456dh in the YPD […]

For the compound `Cn1cc(-c2csc(NC(=O)Cc3ccccn3)n2)cn1` [Compound 4456dh], the MIC80 is, setting by setting: (30°C, YPD) above 13 mM; (39°C, YPD, 48 hours) 7 mM; (Supplemental Table 5, This publication) 2780 µg/mL.
